{
  "source": "patent US9155724B2",
  "about": "“Combination methods for treatment of disease” (Whitehead Institute for Biomedical Research, priority 2010, dated 2015)",
  "key": {"[1]": {"settings": "cited from earlier work"}, "HL60 cells": {"system": "HL60 cells", "settings": "read-out: IC50 on HL60 cells (growth inhibition); cited from earlier work"}, "c-Myc": {"target": "c-Myc (Homo sapiens, UniProt P01106)", "sequence (P01106 whole entry)": "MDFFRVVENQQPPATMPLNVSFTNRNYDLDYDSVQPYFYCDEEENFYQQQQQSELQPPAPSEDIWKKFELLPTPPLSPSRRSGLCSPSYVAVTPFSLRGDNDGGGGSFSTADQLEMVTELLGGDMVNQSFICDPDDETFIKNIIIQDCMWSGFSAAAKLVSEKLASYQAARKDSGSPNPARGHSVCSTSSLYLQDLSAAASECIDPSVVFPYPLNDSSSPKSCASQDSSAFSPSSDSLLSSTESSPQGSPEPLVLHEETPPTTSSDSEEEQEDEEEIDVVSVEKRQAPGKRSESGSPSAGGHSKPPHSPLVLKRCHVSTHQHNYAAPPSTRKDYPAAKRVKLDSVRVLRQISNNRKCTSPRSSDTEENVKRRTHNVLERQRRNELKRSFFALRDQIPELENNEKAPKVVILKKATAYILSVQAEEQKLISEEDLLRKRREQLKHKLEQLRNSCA", "settings": "relative to parent compound 10058-F4; cited from earlier work"}, "[2]": {"system": "c-Myc-dependent oncogenic transformation of chicken embryo fibroblasts", "settings": "at 20 μM; cited from earlier work"}, "P-TEFb [3]": {"target": "T1, P-TEFb (Mus musculus, UniProt Q99J95)", "T1 construct": "endogenous in cells; host or cells: V6.5 (C57BL/6-129) murine ES cells", "T1 sequence (Q99J95 whole entry)": "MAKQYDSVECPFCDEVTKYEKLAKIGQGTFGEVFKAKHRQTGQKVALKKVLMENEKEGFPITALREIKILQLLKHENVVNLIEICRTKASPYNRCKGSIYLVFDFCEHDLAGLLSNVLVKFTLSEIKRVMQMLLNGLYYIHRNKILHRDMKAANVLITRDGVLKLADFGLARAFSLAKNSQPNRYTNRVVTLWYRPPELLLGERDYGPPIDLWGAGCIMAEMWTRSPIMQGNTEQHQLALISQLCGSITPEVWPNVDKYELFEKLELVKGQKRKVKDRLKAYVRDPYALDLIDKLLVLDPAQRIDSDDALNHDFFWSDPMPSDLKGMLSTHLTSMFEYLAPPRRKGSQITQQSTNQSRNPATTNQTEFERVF", "T1 sequence (Q9QWV9 whole entry partner)": "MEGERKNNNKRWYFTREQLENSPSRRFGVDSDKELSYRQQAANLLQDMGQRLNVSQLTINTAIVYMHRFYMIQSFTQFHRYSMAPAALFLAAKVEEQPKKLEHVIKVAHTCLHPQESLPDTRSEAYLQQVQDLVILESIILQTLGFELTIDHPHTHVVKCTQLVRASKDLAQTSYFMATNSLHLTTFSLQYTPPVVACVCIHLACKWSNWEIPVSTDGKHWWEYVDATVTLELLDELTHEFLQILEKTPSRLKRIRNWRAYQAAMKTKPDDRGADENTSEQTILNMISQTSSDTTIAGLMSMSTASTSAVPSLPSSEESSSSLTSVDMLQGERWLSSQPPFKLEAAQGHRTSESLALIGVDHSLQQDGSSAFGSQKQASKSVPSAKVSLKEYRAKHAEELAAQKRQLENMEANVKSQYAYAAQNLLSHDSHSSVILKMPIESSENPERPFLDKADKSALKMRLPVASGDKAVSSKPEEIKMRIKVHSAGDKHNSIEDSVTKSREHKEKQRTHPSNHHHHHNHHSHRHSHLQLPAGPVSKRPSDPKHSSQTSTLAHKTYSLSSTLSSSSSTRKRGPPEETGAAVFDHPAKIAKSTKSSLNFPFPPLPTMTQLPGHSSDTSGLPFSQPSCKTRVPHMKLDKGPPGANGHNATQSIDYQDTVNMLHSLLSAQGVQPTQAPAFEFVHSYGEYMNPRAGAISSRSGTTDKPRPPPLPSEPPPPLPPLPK", "assay": "Western blot of P-TEFb target phosphorylation in flavopiridol-treated mES cells", "type": "cell-based, murine", "settings": "1 μM flavopiridol, within 60 min", "experimental": "(A) mES cells were treated with 1 μM flavopiridol for the indicated time.\n(A) mES cells were treated with the indicated flavopiridol concentration or DMSO alone (−), for 60 minutes.\nTo assess the role of P-TEFb-dependent pause release in global transcriptional control, we repeated the ChIP-Seq experiment for total Pol II in mES cells treated with flavopiridol, an inhibitor of Cdk9 kinase activity (Chao et al., 2000; Chao and Price, 2001; Ni et al., 2004).\nV6.5 (C57BL/6-129) murine ES cells were grown under typical mES conditions on irradiated mouse embryonic fibroblasts (MEFs). […] For location analysis on mES cells following treatment with small molecule inhibitors, cells were grown two passages off feeders and prior to formaldehyde crosslinking, the cells were treated by addition of the indicated final concentration of flavopiridol (1 μM for 1 hour for ChIP-chip and ChIP-seq experiments, or the indicated concentration and time for Western blot analysis), or c-Myc/Max inhibitor 10058-F4 (50 μM for 6 hours), both dissolved in DMSO, to the growth medium. As a control, vehicle alone (DMSO) was added to the growth medium at the same final volume as with drug. Small molecule inhibitors used were: Flavopiridol (Sigma cat #F3055), and c-Myc inhibitor 10058-F4 (Sigma cat #F3680).\nWestern blots were done following standard protocols. Antibodies used for Western blots were as follows: Spt5: gift of Yuki Yamaguchi and Hiroshi Handa (Wada et al., 1998); NelfA: gift of Yuki Yamaguchi and Hiroshi Handa; Cdk9: Santa Cruz sc-484 and sc-8338, Ser2P Pol II: Abcam (H5 clone) ab24758; Ser5P Pol II: Abcam ab5131; Brg1: Santa Cruz sc-10768; Max: Santa Cruz sc-197; c-Myc: Santa Cruz-764; Cyclin T1: gift of David Price; Oct4: Santa Cruz sc-5279; and TBP: Abcam ab818."}, "P-TEFb [4]": {"target": "T1, P-TEFb", "assay": "Pol II ChIP-seq / traveling ratio in flavopiridol-treated mES cells", "type": "cell-based, murine", "experimental": "(A) mES cells were treated with 1 μM flavopiridol for the indicated time. […] (B) RNA Pol II (all) ChIP-seq analysis in mES cells treated with control (DMSO for 60 minutes, black) or flavopiridol (1 μM for 60 minutes, red). […] Higher TR values indicate a higher degree of pausing.\nTo assess the role of P-TEFb-dependent pause release in global transcriptional control, we repeated the ChIP-Seq experiment for total Pol II in mES cells treated with flavopiridol, an inhibitor of Cdk9 kinase activity (Chao et al., 2000; Chao and Price, 2001; Ni et al., 2004). […] If Pol II pause release is required at transcribed genes, we would expect that in the presence of flavopiridol, Pol II molecules would remain associated with promoter proximal pause sites but be depleted from DNA further downstream. […] We analyzed traveling ratios to further evaluate changes in Pol II occupancy genome-wide.\nV6.5 (C57BL/6-129) murine ES cells were grown under typical mES conditions on irradiated mouse embryonic fibroblasts (MEFs). For location analysis, cells were grown for two passages off of MEFs, on gelatinized tissue-culture plates. […]\nTo quantify this effect, we have developed a measure called Traveling Ratio (TR) that compares the ratio between Pol II density in the promoter and in the gene region. […]"}, "P-TEFb [5]": {"target": "T1, P-TEFb", "assay": "Spt5 and NelfA ChIP-chip in flavopiridol-treated mES cells", "type": "cell-based, murine", "settings": "flavopiridol for 60 minutes", "experimental": "(A) Pairwise correlation analysis of Spt5, NelfA and Pol II (all) ChIP-seq occupancy in mES cells. […] (B) Western blot analysis of mES cells treated with 1 mM flavopiridol or control for 60 minutes prior. […] (C) Average gene binding for NelfA and Spt5 following 1 mM flavopiridol (red) or control (black) for 60 minutes in mES cells. The average ChIP-chip enrichment was determined in each bin (250 bp) in each condition and plotted from −4 kb to +2 kb.\nWe used ChIP-chip to determine if Spt5 and NelfA co-occupy promoter proximal sites with Pol II when P-TEFb activity is inhibited by flavopiridol.\nPurified immunoprecipitated DNA was amplified using two rounds of ligation mediated PCR (LM PCR), as described in (Lee et al., 2006b) and the Agilent Mammalian ChIP-on-chip protocol (version 9.1, November 2006). LM-PCR immunoprecipitated DNA was labeled with Cy5, LM-PCR input DNA was labeled with Cy3 using Invitrogen Bioprime random primer labeling kit. For microarray hybridization, the Agilent Mammalian ChIP-on-chip protocol (version 9.1, November 2006) was followed. In brief, mouse Cotl DNA, Agilent blocking buffer (1× final conc.), Agilent hybridization buffer (1× final conc.), was added to Cy5- and Cy3-labeled DNA. The mixture was incubated at 95° C. for 3 minutes, followed by 37° C. for 30 minutes. Sample was centrifuged for 1 min and sample was hybridized to Agilent DNA microarray. […]"}, "[6]": {"settings": "cited from earlier work", "remark": "listed apart in the source"}, "c-Myc/Max [7]": {"target": "T2, c-Myc/Max (Mus musculus, UniProt P01108)", "T2 construct": "endogenous in cells; host or cells: V6.5 (C57BL/6-129) murine ES cells", "T2 sequence (P01108 whole entry)": "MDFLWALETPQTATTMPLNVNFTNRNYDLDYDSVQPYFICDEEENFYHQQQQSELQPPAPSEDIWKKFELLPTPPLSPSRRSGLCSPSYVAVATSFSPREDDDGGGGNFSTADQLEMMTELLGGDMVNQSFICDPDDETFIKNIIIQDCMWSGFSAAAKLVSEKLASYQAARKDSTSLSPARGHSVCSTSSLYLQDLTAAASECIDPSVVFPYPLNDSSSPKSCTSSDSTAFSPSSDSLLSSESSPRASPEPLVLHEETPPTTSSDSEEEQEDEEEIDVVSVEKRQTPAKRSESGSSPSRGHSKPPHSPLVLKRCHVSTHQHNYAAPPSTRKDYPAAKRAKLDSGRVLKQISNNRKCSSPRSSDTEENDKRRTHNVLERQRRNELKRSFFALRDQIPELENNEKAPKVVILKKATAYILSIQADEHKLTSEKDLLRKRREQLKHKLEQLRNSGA", "assay": "expression analysis (quantitative PCR) in 10058-F4-treated mES cells", "type": "cell-based, murine", "settings": "50 μM for 6 hours", "protocol": "FIGS. 6A to 6E. c-Myc inhibition effects transcription at the pause release step. (A) RNA was extracted from mES cells treated with 10058-F4 or vehicle alone (DMSO) for 6 hours and used to generate cDNA using reverse transcription. Expression change was calculated for 10058-F4 treated cells compared vehicle alone control for two non-c-Myc target genes (Brg1, Rnf2-green) and five c-Myc target genes (Bax, Nol5, Zfp451, Brca2 and Atic—blue) from two independent experiments. Error bars represent s.d. from triplicate qPCR reactions. (B) mES cells were treated with 10058-F4 for either 1.5, 6 or 12 hours. Extracts were analyzed using Western blot using antibodies against Pol II Ser2P CTD, Pol II Ser5P CTD and Cdk9 to determine the levels of the modified forms of Pol II. TBP was used as a loading control. […]\nTo more directly test whether c-Myc regulates pause release and the associated Pol II CTD phosphorylation at Ser2, we used a low molecular weight inhibitor of c-Myc/Max, 10058-F4, which inhibits c-Myc/Max heterodimerization both in vitro and in vivo (Hammoudeh et al., 2009; Wang et al., 2007; Yin et al., 2003). Max co-occupies c-Myc binding sites as determined by ChIP, confirming that c-Myc and Max function together at target genes in ES cells (FIG. 14A). […]"}, "c-Myc/Max [8]": {"target": "T2, c-Myc/Max", "assay": "Western blot of 10058-F4-treated mES cells", "type": "cell-based, murine", "protocol": "FIGS. 6A to 6E. c-Myc inhibition effects transcription at the pause release step. (A) RNA was extracted from mES cells treated with 10058-F4 or vehicle alone (DMSO) for 6 hours and used to generate cDNA using reverse transcription. Expression change was calculated for 10058-F4 treated cells compared vehicle alone control for two non-c-Myc target genes (Brg1, Rnf2-green) and five c-Myc target genes (Bax, Nol5, Zfp451, Brca2 and Atic—blue) from two independent experiments. Error bars represent s.d. from triplicate qPCR reactions. (B) mES cells were treated with 10058-F4 for either 1.5, 6 or 12 hours. Extracts were analyzed using Western blot using antibodies against Pol II Ser2P CTD, Pol II Ser5P CTD and Cdk9 to determine the levels of the modified forms of Pol II. TBP was used as a loading control. (C) Pol II ChIP-seq binding profiles in mES cells treated with 10058-F4 (c-Myc/Max inhibitor; blue), vehicle alone (black), or flavopiridol (P-TEFb inhibitor; red). Pol II occupancy is shown for three c-Myc target genes (Ncl, Npm1 and Nol5) and two non-cMyc target gene (Txnip and Chpf2). Cells were treated with 10058-F4 or DMSO for 6 hours. See also FIG. 14. (D) Average Pol II binding plots for the high confidence cMyc targets and non-c-Myc target genes in no drug (black), and 10058-F4 treatment (blue). […] The right panel is a close up of the transcribed region to show the difference in amounts of elongating Pol II density under the different conditions. […]\nFIGS. 14A to 14F. […] Max ChIP DNA was analyzed using qPCR at the selected binding sites and enrichment was calculated for replicate PCR reactions over input DNA at each region. […] Protein extracts were analyzed using Western blots and probed with antibodies against CycT1 and Cdk9. […] ES cells were infected for 24 hours, then selected for 72 hours prior to harvesting. c-Myc levels were determined using RT-PCR analysis and normalized against a Gapdh control. […] ES cells were infected for 24 hours, then selected for 72 hours prior to harvesting. c-Myc levels were determined using Western blot analysis using an antibody against c-Myc. […]"}, "c-Myc/Max [9]": {"target": "T2, c-Myc/Max", "assay": "Pol II ChIP-seq / traveling ratio in 10058-F4-treated mES cells", "type": "cell-based, murine", "settings": "50 μM for 6 hours", "protocol": "FIGS. 6A to 6E. c-Myc inhibition effects transcription at the pause release step. (A) RNA was extracted from mES cells treated with 10058-F4 or vehicle alone (DMSO) for 6 hours and used to generate cDNA using reverse transcription. Expression change was calculated for 10058-F4 treated cells compared vehicle alone control for two non-c-Myc target genes (Brg1, Rnf2-green) and five c-Myc target genes (Bax, Nol5, Zfp451, Brca2 and Atic—blue) from two independent experiments. Error bars represent s.d. from triplicate qPCR reactions. (B) mES cells were treated with 10058-F4 for either 1.5, 6 or 12 hours. Extracts were analyzed using Western blot using antibodies against Pol II Ser2P CTD, Pol II Ser5P CTD and Cdk9 to determine the levels of the modified forms of Pol II. TBP was used as a loading control. (C) Pol II ChIP-seq binding profiles in mES cells treated with 10058-F4 (c-Myc/Max inhibitor; blue), vehicle alone (black), or flavopiridol (P-TEFb inhibitor; red). Pol II occupancy is shown for three c-Myc target genes (Ncl, Npm1 and Nol5) and two non-cMyc target gene (Txnip and Chpf2). Cells were treated with 10058-F4 or DMSO for 6 hours. See also FIG. 14. (D) Average Pol II binding plots for the high confidence cMyc targets and non-c-Myc target genes in no drug (black), and 10058-F4 treatment (blue). […] The right panel is a close up of the transcribed region to show the difference in amounts of elongating Pol II density under the different conditions. Also included in the right panel for comparison is elongating Pol II density following flavopiridol treatment (red). (E) Pol II traveling ratio (TR) as described in FIG. 1C for the high confidence c-Myc target genes and non-c-Myc target genes following 10058-F4 treatment (blue) or no drug (black). The left panel is the TR for the c-Myc targets and right panel is the TR for non-c-Myc targets. Higher TR values indicate a higher degree of pausing in this gene set.\nIf c-Myc regulates pause release, then inhibition by 10058-F4 should have an effect on Pol II levels in promoter and gene bodies similar to that of flavopiridol, but only at c-Myc occupied genes. […]\nWe carried out a more global analysis of the effect of 10058-F4 on Pol II occupancy of genes bound by c-Myc and compared these patterns to genes that are not bound by this factor but show evidence of elongation (FIG. 6D). […] A similar shift in TR at the c-Myc target genes was also detected following c-Myc shRNA knockdown, indicating genes become more paused (FIG. 14F). […]\nRNAPolII—10058F4Treated_Tracks.WIG.gz—contains two ChIP-seq datasets mapped to mouse genome mm8 using a +200 bp extension model that can be uploaded to the UCSC genome browser to view binding events. The ChIP experiments were done using the N20 Pol II antibody (sc-899) to determined total Pol II occupancy. […]"}, "[10]": {"settings": "ES cells treated with 10058-F4 for 1.5, 6 or 12 hours"}},
  "note": "Structures can show the parent of a compound that is named as a salt.",
  "data": [
    {"molecule": "CC[C@H](CO)Nc1nc(NCc2ccccc2)c2ncn(C(C)C)c2n1", "note": "[roscovitine, 2-(R)-(1-Ethyl-2-hydroxyethylamino)-6-benzylamino-9-isopropyl purine]", "values": [
      {"measurement": "dose-limiting toxicities", "setting": "[1]; at 800 mg b.i.d.", "result": "grade 3 fatigue, grade 3 skin rash, grade 3 hyponatraemia and grade 4 hypokalaemia"},
      {"measurement": "dose at which dose-limiting toxicities were seen", "setting": "[1]; patients with solid tumors, 7-day b.i.d. p.o. schedule", "result": 800, "unit": "mg b.i.d."}
    ]},
    {"molecule": "CC(C)c1ccc(/C=C2\\SC(=S)N(CN3CCCCC3)C2=O)cc1", "note": "[28RH-NCN-1]", "values": [
      {"measurement": "IC50", "setting": "HL60 cells", "result": 29, "unit": "µM"},
      {"measurement": "inhibition of DNA binding of c-Myc", "setting": "c-Myc", "result": "comparable to that of the parent compound"}
    ]},
    {"molecule": "COc1ccc(CN(C(=O)c2ccccn2)C(C(=O)NC2CCCCC2)c2ccc3cc(OCC(=O)OC(C)(C)C)ccc3c2)cc1", "note": "(centres unmarked) [NY2267]", "values": [
      {"measurement": "inhibition of c-Myc-dependent oncogenic transformation", "setting": "[2]", "result": "strongly inhibited"}
    ]},
    {"molecule": "CN1CC[C@H](c2c(O)cc(O)c3c(=O)cc(-c4ccccc4Cl)oc23)[C@H](O)C1", "note": "[flavopiridol, (−)-2-(2-Chlorophenyl)-5,7-dihydroxy-8-[(3S,4R)-3-hydroxy-1-methyl-4-piperidinyl]-4H-1-benzopyran-4-one hydrochloride]", "values": [
      {"measurement": "Ser5 phosphorylation of Pol II", "setting": "P-TEFb [3]", "result": "remained unaffected"},
      {"measurement": "phosphorylation of Pol II Ser2", "setting": "P-TEFb [3]", "result": "reduced phosphorylation"},
      {"measurement": "phosphorylation of Spt5", "setting": "P-TEFb [3]", "result": "reduced phosphorylation"},
      {"measurement": "genes with a change in Pol II TR of at least 1.5 upon drug treatment", "setting": "P-TEFb [4]; 1 μM for 60 minutes", "result": 75, "unit": "%"},
      {"measurement": "pause release at genes that are not targets of c-Myc", "setting": "P-TEFb [4]; flavopiridol treatment, Pol II ChIP-seq", "result": "block in pause release"},
      {"measurement": "Spt5 occupancy downstream of promoter proximal sites", "setting": "P-TEFb [5]", "result": "depleted"},
      {"measurement": "main side effects", "setting": "[6]; doses achieving plasma levels of approximately 400 nM, 72 hour treatment", "result": "fatigue, venous thromboses, and diarrhea"},
      {"measurement": "plasma flavopiridol levels", "setting": "[6]; during a 72 hour treatment period", "result": "approximately 400 nM"}
    ]},
    {"molecule": "CCc1ccc(/C=C2\\SC(=S)NC2=O)cc1", "note": "[10058-F4]", "values": [
      {"measurement": "decrease in the expression of c-Myc target genes", "setting": "c-Myc/Max [7]", "result": "20-40%"},
      {"measurement": "expression of two non-c-Myc target genes", "setting": "c-Myc/Max [7]", "result": "did not affect"},
      {"measurement": "levels of Pol II Ser2P", "setting": "c-Myc/Max [8]; [10]", "result": "significant reduction"},
      {"measurement": "levels of Pol II Ser5P", "setting": "c-Myc/Max [8]; [10]", "result": "remained unaffected"},
      {"measurement": "protein levels of P-TEFb components Cdk9 or CycT1", "setting": "c-Myc/Max [8]; mES cells, 10058-F4 for 6 hours", "result": "did not alter"},
      {"measurement": "TR at c-Myc target genes", "setting": "c-Myc/Max [9]", "result": "substantial increase"},
      {"measurement": "TR at non-c-Myc targets", "setting": "c-Myc/Max [9]", "result": "no such shift"},
      {"measurement": "Pol II density in transcribed regions", "setting": "c-Myc/Max [9]; c-Myc targets, gene body p=7.341e-06", "result": "clear reduction"},
      {"measurement": "Pol II density at promoters", "setting": "c-Myc/Max [9]; c-Myc targets, p=0.4536", "result": "little effect"},
      {"measurement": "IC50", "setting": "HL60 cells", "result": 49, "unit": "µM"}
    ]}
  ]
}
